From patent US20240300939A1 (Scorpion Therapeutics, Inc., priority 2021, published 2024)

These compounds were tested against T1, PI3Kα H1047R (Homo sapiens, UniProt P42336, H1047R) (assay: Surface Plasmon Resonance (SPR) binding, wortmannin-blocked protein). Conditions: Biacore 8K, protein pre-incubated with 1 μM wortmannin, 25° C.
T1 construct: The protein contained a full-length p110-a subunit harboring the H1047R mutation with an N-terminal AviTag
T1 sequence (P42336 whole entry H1047R): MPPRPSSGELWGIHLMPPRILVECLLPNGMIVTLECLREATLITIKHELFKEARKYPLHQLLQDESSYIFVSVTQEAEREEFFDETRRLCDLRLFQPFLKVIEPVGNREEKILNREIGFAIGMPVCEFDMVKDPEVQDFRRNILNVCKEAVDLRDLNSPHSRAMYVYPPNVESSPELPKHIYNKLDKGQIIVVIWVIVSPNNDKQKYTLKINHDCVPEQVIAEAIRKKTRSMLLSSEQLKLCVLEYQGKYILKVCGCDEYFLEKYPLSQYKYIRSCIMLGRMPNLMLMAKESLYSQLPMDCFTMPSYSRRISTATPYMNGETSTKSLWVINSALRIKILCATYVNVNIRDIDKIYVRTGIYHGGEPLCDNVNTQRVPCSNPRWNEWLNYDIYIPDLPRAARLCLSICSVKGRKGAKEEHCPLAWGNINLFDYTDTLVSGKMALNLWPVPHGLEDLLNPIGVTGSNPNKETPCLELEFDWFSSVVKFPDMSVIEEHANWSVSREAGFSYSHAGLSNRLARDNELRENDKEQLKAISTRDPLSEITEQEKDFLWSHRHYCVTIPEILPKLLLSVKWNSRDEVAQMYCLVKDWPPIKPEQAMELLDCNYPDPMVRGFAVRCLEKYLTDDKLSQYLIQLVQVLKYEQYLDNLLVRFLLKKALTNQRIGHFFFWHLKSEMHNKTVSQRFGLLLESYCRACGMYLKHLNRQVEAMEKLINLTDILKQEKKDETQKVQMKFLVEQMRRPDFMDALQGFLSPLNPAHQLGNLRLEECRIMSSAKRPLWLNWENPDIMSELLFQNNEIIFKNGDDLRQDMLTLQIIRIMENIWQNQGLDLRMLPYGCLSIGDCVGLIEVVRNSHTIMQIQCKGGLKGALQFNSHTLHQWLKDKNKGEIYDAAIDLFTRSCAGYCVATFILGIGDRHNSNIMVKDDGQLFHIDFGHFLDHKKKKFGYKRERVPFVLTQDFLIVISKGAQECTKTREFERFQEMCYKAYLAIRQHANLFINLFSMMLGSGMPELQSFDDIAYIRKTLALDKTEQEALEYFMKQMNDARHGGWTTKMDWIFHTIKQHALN
T1 sequence (P27986 322-694 partner limits assumed): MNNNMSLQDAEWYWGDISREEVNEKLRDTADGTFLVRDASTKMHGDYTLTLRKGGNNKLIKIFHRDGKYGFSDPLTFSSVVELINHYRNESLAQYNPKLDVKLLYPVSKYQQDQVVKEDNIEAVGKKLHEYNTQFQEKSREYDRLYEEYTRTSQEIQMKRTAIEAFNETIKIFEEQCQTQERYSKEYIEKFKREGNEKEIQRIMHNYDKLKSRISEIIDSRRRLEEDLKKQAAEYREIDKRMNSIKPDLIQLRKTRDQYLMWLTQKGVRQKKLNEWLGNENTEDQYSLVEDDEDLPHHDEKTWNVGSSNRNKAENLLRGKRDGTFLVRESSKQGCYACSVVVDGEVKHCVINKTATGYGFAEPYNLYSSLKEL
Experimental: SPR experiments were performed on a Biacore 8K instrument. A biotinylated recombinant PI3Kα H1047R protein was used in this study. The protein contained a full-length p110-a subunit harboring the H1047R mutation with an N-terminal AviTag, complexed with a truncated p85-a subunit (amino acid residues 322-694). The protein was first incubated with 1 μM wortmannin for 30 min at RT to covalently block the ATP binding site, then immobilized onto a streptavidin sensor chip by flowing the protein through the sensor chip at typically 20 μg/mL concentration and 2 μL/min flow rate for 1200 seconds. Compound binding affinities were measured in the multi-cycle kinetics mode, at 90 μL/min flow rate with 90 seconds association time and 240 seconds dissociation time. The running buffer contained 50 mM Tris, pH 7.5, 150 mM NaCl, 0.01% Brij35, 1 mM DTT, 1 mM MgCl2, 0.05% Tween-20 and 2% DMSO. Temperature was maintained at 25° C. during experiments.
`Cc1c([C@@H](NC(=O)N[C@H]2CC[C@H](C(N)=O)CC2)C(C)C)oc2ccc(F)cc12` (relative stereo) [Compound 42, (1R,4r)-4-(3-((R*)-1-(5-fluoro-3-methylbenzofuran-2-yl)-2-methylpropyl)ureido)cyclohexane-1-carboxamide] was tested, and the Kd was no less than 500 nM.

The compounds below were run on pAKT (S473) in T47D cells (PI3Kα H1047R mutation) (assay: HTRF pAKT (S473) in T47D cells). Conditions: Homo sapiens, T47D, 1 h.
Type: cell-based
In the case of `Cc1c([C@@H](NC(=O)Nc2cccc(N3CCC3=O)c2)C(C)C)oc2ccc(F)cc12` [Compound 104], the IC50 is reported as less than 1000 nM. Work on `Cc1c([C@H](NC(=O)Nc2cnc(N3C[C@H](O)[C@H]3C)nc2)C(F)(F)F)oc2c(F)cc(F)cc12` [Compound 173] yielded an IC50 greater than 5000 nM. Work on `Cc1c([C@@H](NC(=O)Nc2cnc(N3C[C@H](O)[C@H]3C)nc2)C(F)(F)F)oc2c(F)cc(F)cc12` [Compound 174] yielded an IC50 of less than 1000 nM. With `Cc1c([C@@H](NC(=O)Nc2cnc(NCC(C)(C)O)nc2)C(F)(F)F)oc2c(F)cc(F)cc12` [Compound 183] the IC50 was less than 1000 nM. `Cc1c([C@H](NC(=O)Nc2cnc(NCC(C)(C)O)nc2)C(F)(F)F)oc2c(F)cc(F)cc12` [Compound 184] was tested, and the IC50 was greater than 5000 nM.

Same assay, conditions: timepoint 1 hour
`Cc1c([C@@H](NC(=O)Nc2cnc(NC[C@@H](C)O)nc2)C(C)C)oc2ccc(F)cc12` [Compound 143] gave an IC50 of less than 1000 nM. With `Cc1c(C(NC(=O)Nc2ccc(N)nc2)C(F)(F)F)oc2c(F)cc(F)cc12` (centres unmarked) [Compound 181] the IC50 was greater than 5000 nM. `Cc1c(C(NC(=O)Nc2ccc(N)nc2)C(F)(F)F)oc2c(F)cc(F)cc12` (centres unmarked) [Compound 182] gave an IC50 of less than 1000 nM. Work on `Cc1c([C@@H](NC(=O)Nc2cnc(N3CC(C(C)(C)O)C3)nc2)C(F)(F)F)oc2c(F)cc(F)cc12` [Compound 205] yielded an IC50 of less than 1000 nM. For `Cc1c([C@H](NC(=O)Nc2cnc(N3CC(C(C)(C)O)C3)nc2)C(F)(F)F)oc2c(F)cc(F)cc12` [Compound 206], the IC50 was greater than 5000 nM. Work on `Cc1c([C@H](NC(=O)Nc2cnc(N3CC[C@@H](O)C3)nc2)C(F)(F)F)oc2c(F)cc(F)cc12` [Compound 207] yielded an IC50 greater than 5000 nM. `Cc1c([C@@H](NC(=O)Nc2cnc(N3CC[C@@H](O)C3)nc2)C(F)(F)F)oc2c(F)cc(F)cc12` [Compound 208] showed an IC50 of less than 1000 nM. In the case of `Cc1c([C@@H](NC(=O)Nc2cnc(N3CC[C@H](O)C3)nc2)C(F)(F)F)oc2c(F)cc(F)cc12` [Compound 209], the IC50 is reported as less than 1000 nM. Work on `Cc1c([C@H](NC(=O)Nc2cnc(N3CC[C@H](O)C3)nc2)C(F)(F)F)oc2c(F)cc(F)cc12` [Compound 210] yielded an IC50 greater than 5000 nM. For `Cc1c([C@@H](NC(=O)Nc2cnc(N3CC(C(N)=O)C3)nc2)C(F)(F)F)oc2c(F)cc(F)cc12` [Compound 211], the IC50 was less than 1000 nM. For `Cc1c([C@H](NC(=O)Nc2cnc(N3CC(C(N)=O)C3)nc2)C(F)(F)F)oc2c(F)cc(F)cc12` [Compound 212], the IC50 was greater than 5000 nM.
